# Key:
# Assay type in all cases: cell-based
# [1] = test system: MDA-MB-231, human breast cancer cells; experiment: Proliferation assay MDA-MB-231 (crystal violet, 4 days); details: Homo sapiens, MDA-MB-231, 96 h, MDA-MB-231 cells, median, read-out: Prolif-MDA MB-231, IC50-[mol/l] (median)
# Summary of the method: (§1)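 CAL-120 or MDA-MB-231 cells grown 24 h, then exposed 4 days to compound (0.01–10 micromol/L, 0.1% DMSO). Crystal violet staining, absorbance at 595 nm, normalised to a zero-point plate (0%) and untreated cells (100%); IC50 by 4-parameter fit.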
# [2] = target: T1, CYCLIN K (nuclear staining in CAL-120 cells) (Homo sapiens, UniProt O75909); experiment: CYCLIN K nuclear protein level: immunofluorescence high content analysis (CAL-120); details: 24 h, 50% reduction of nuclear CCNK staining intensity, median, read-out: CYCLIN K degradation IF, DC50-[mol/l] (median)
# T1 construct: endogenous in cells; host or cells: CAL-120 human breast cancer cells (DSMZ ACC 459)
# Summary of the method: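 CAL-120 breast cancer cells treated in dose-response for 24 h at 37 °C, PFA-fixed and immunostained for cyclin K with Hoechst counterstain. Confocal imaging quantified nuclear intensity; DC50 is the concentration giving 50% reduction of nuclear CCNK staining, normalized to DMSO and control.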
# [3] = test system: CAL-120, human breast adenocarcinoma cells; experiment: Proliferation assay CAL-120 (crystal violet, 4 days); details: Homo sapiens, CAL-120, 96 h, CAL-120 cells, median, read-out: Prolif-CAL-120, IC50-[mol/l] (median)
# Summary of the method: as §1
# [4] = target: T2, CDK12 (nuclear staining in CAL-120 cells) (Homo sapiens, UniProt Q9NYV4); experiment: CDK12 nuclear protein level: immunofluorescence/high content analysis (CAL-120); details: for DC50: CAL-120 cells, 24 h, immunofluorescence, 50% reduction of nuclear CDK12 staining intensity, median, read-out: CDK12 degradation IF, DC50- [mol/l] (median); for (IC50 CDK12 high ATP) to (Degradation DC50 CDK12) ratio: ratio of IC50 CDK12 high ATP kinase assay to DC50 CDK12 degradation (IF, CAL-120)
# T2 construct: endogenous in cells; host or cells: CAL-120 human breast cancer cells (DSMZ ACC 459)
# Summary of the method: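 CAL-120 cells were treated with compound for 24 h at 37 °C, fixed with PFA and immunostained for CDK12. Nuclear CDK12 intensity was quantified by automated image analysis and normalized to DMSO and control. DC50 is the concentration giving 50% reduction of nuclear staining.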
# T2 sequence (Q9NYV4 whole entry): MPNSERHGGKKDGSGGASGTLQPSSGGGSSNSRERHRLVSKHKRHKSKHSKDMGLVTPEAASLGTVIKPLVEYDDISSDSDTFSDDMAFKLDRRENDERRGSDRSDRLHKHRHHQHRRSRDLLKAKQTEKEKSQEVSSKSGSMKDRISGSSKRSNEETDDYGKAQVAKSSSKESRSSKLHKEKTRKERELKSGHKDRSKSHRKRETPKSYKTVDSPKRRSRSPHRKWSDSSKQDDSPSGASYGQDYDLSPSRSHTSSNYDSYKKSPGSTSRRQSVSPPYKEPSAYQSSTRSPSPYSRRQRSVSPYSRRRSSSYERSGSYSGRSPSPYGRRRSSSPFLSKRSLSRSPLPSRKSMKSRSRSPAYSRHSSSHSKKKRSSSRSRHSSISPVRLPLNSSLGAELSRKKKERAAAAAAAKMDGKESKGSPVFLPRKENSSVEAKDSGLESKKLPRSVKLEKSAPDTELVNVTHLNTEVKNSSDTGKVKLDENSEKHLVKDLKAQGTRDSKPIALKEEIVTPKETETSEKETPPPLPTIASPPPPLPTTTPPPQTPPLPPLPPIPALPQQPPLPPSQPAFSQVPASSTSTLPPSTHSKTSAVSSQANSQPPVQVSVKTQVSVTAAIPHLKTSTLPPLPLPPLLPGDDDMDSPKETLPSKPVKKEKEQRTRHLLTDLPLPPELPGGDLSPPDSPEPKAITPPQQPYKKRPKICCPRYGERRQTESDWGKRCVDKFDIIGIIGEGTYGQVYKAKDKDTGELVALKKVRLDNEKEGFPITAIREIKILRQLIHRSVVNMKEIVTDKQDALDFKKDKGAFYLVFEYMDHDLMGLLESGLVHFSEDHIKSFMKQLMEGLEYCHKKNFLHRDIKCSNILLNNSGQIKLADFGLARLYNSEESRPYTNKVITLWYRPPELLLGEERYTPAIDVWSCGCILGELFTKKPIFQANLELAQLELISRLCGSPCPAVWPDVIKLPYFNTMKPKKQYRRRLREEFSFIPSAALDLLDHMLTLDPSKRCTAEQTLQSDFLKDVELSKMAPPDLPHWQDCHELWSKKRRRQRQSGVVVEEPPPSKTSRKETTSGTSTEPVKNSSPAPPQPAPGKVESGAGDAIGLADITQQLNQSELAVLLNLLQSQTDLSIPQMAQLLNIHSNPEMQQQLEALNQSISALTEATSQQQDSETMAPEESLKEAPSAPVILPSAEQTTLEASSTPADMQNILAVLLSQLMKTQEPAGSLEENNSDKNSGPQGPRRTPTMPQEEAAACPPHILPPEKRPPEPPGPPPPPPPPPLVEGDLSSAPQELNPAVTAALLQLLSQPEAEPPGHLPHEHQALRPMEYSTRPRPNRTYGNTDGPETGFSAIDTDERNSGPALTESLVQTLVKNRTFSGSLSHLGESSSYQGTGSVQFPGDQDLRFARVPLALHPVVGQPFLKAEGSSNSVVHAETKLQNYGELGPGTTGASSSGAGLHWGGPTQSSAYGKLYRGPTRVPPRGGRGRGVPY
# T2 sequence (O75909 whole entry partner): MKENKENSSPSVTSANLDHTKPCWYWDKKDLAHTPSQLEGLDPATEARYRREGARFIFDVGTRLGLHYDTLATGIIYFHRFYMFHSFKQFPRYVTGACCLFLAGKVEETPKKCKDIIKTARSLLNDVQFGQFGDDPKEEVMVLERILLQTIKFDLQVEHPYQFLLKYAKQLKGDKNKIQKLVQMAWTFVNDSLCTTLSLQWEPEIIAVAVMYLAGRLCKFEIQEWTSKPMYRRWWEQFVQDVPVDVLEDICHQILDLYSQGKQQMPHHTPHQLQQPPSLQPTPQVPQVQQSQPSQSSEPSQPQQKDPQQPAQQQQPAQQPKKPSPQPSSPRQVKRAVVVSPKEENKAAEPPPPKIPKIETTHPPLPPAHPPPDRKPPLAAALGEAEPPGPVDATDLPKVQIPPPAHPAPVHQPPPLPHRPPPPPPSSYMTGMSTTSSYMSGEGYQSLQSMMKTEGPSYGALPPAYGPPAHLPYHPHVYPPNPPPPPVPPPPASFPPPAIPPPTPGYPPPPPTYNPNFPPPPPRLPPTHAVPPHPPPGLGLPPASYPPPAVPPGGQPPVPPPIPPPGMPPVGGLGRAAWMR
# T1 sequence (O75909 whole entry): as the sequence (O75909 whole entry partner) above
# T1 sequence (Q9NYV4 whole entry partner): as the sequence (Q9NYV4 whole entry) above
smiles,measurement,setting,value
"CN[C@@H]1CCN(c2nc(NCc3nc4ccccc4[nH]3)n3ncc(Br)c3n2)C1 [Example 253, N-[(1H-benzimidazol-2-yl)methyl]-8-bromo-2-[(3R)-3-(methylamino)pyrrolidin-1-yl]pyrazolo[1,5-a][1,3,5]triazin-4-amine]",IC50,[1],32.8 nM
same,DC50,[2],1.82 nM
same,IC50,[3],6.91 nM
same,DC50,[4],0.875 nM
same,(IC50 CDK12 high ATP) to (Degradation DC50 CDK12) ratio,[4],>22856
"Fc1ccc2[nH]c(CNc3nc(N4CCOCC4)nc4c([C@@H]5CC5(F)F)cnn34)nc2c1 (single isomer, unassigned) [Example 315, 8-[(1R or S)-2,2-difluorocyclopropyl]-N-[(5-fluoro-1H-benzimidazol-2-yl)methyl]-2-(morpholin-4-yl)pyrazolo[1,5-a][1,3,5]triazin-4-amine]",IC50,[1],88 nM
same,DC50,[2],2.15 nM
same,IC50,[3],38.4 nM
same,DC50,[4],33.9 nM
same,(IC50 CDK12 high ATP) to (Degradation DC50 CDK12) ratio,[4],>581
"N[C@H]1CCN(c2nc(NCc3nc4ccccc4[nH]3)n3ncc(Br)c3n2)C1 [Example 245, 2-[(3S)-3-aminopyrrolidin-1-yl]-N-[(1H-benzimidazol-2-yl)methyl]-8-bromopyrazolo[1,5-a][1,3,5]triazin-4-amine]",IC50,[1],14.3 nM
same,DC50,[2],0.627 nM
same,IC50,[3],3.1 nM
same,DC50,[4],1.49 nM
same,(IC50 CDK12 high ATP) to (Degradation DC50 CDK12) ratio,[4],>10636
"CN[C@H]1CCN(c2nc(NCc3nc4ccccc4[nH]3)n3ncc(Br)c3n2)C1 [Example 252, N-[(1H-benzimidazol-2-yl)methyl]-8-bromo-2-[(3S)-3-(methylamino)pyrrolidin-1-yl]pyrazolo[1,5-a][1,3,5]triazin-4-amine]",IC50,[1],30.6 nM
same,DC50,[2],2.42 nM
same,IC50,[3],38.7 nM
same,DC50,[4],1.17 nM
same,(IC50 CDK12 high ATP) to (Degradation DC50 CDK12) ratio,[4],>17030
"CN1CCN(c2nc(NCc3nc4ccccc4[nH]3)n3ncc(C4CC4)c3n2)CC1 [Example 246, N-[(1H-benzimidazol-2-yl)methyl]-8-cyclopropyl-2-(4-methylpiperazin-1-yl)pyrazolo[1,5-a][1,3,5]triazin-4-amine]",IC50,[1],121 nM
same,DC50,[2],1.02 nM
same,IC50,[3],12.1 nM
same,DC50,[4],3 nM
same,(IC50 CDK12 high ATP) to (Degradation DC50 CDK12) ratio,[4],>4287
"Fc1ccc2[nH]c(CNc3nc(N4CCOCC4)nc4c(C5CC5(F)F)cnn34)nc2c1 (single isomer, unassigned) [Example 314, 8-[(1R or S)-2,2-difluorocyclopropyl]-N-[(5-fluoro-1H-benzimidazol-2-yl)methyl]-2-(morpholin-4-yl)pyrazolo[1,5-a][1,3,5]triazin-4-amine]",IC50,[1],31.3 nM
same,DC50,[2],1.11 nM
same,IC50,[3],13 nM
same,DC50,[4],8.47 nM
same,(IC50 CDK12 high ATP) to (Degradation DC50 CDK12) ratio,[4],1171
"N[C@H]1[C@@H]2C[C@H]1CN(c1nc(NCc3nc4ccccc4[nH]3)n3ncc(Br)c3n1)C2 [Example 288, 2-[(1R,5S,6r)-6-amino-3-azabicyclo[3.1.1]heptan-3-yl]-N-[(1H-benzimidazol-2-yl)methyl]-8-bromopyrazolo[1,5-a][1,3,5]triazin-4-amine]",IC50,[1],5.68 nM
same,DC50,[2],0.418 nM
same,IC50,[3],1.8 nM
same,DC50,[4],1.16 nM
same,(IC50 CDK12 high ATP) to (Degradation DC50 CDK12) ratio,[4],2920
"NC1CCN(c2nc(NCc3nc4ccccc4[nH]3)n3ncc(Br)c3n2)CC1 [Example 256, 2-(4-aminopiperidin-1-yl)-N-[(1H-benzimidazol-2-yl)methyl]-8-bromopyrazolo[1,5-a][1,3,5]triazin-4-amine]",IC50,[1],12.6 nM
same,DC50,[2],0.326 nM
same,IC50,[3],9.97 nM
same,DC50,[4],3.53 nM
same,(IC50 CDK12 high ATP) to (Degradation DC50 CDK12) ratio,[4],>5662
"Fc1cccc2[nH]c(CNc3nc(N4CCOCC4)nc4c(CC(F)(F)F)cnn34)nc12 [Example 303, N-[(4-fluoro-1H-benzimidazol-2-yl)methyl]-2-(morpholin-4-yl)-8-(2,2,2-trifluoroethyl)pyrazolo[1,5-a][1,3,5]triazin-4-amine]",IC50,[1],26.5 nM
same,DC50,[2],0.546 nM
same,IC50,[3],7.9 nM
same,DC50,[4],11 nM
same,(IC50 CDK12 high ATP) to (Degradation DC50 CDK12) ratio,[4],155
"Fc1ccc2[nH]c(CNc3nc(N4CCOCC4)nc4c(C5CC5(F)F)cnn34)nc2c1F (centres unmarked) [Example 278, N-[(4,5-difluoro-1H-benzimidazol-2-yl)methyl]-8-(2,2-difluorocyclopropyl)-2-(morpholin-4-yl)pyrazolo[1,5-a][1,3,5]triazin-4-amine]",IC50,[1],17.4 nM
same,DC50,[2],0.728 nM
same,IC50,[3],7.54 nM
same,DC50,[4],1.18 nM
same,(IC50 CDK12 high ATP) to (Degradation DC50 CDK12) ratio,[4],2070
"N[C@@H]1[C@@H]2C[C@H]1CN(c1nc(NCc3nc4ccccc4[nH]3)n3ncc(Br)c3n1)C2 [Example 289, 2-[(1R,5S,6s)-6-amino-3-azabicyclo[3.1.1]heptan-3-yl]-N-[(1H-benzimidazol-2-yl)methyl]-8-bromopyrazolo[1,5-a][1,3,5]triazin-4-amine]",IC50,[1],10.3 nM
same,DC50,[2],1.76 nM
same,IC50,[3],3.08 nM
same,DC50,[4],3.13 nM
same,(IC50 CDK12 high ATP) to (Degradation DC50 CDK12) ratio,[4],2240
"CN(CC(C)(C)O)c1nc(NCc2nc3c(F)c(F)ccc3[nH]2)n2ncc(C3CC3)c2n1 [Example 292, 1-[(8-cyclopropyl-4-{[(4,5-difluoro-1H-benzimidazol-2-yl)methyl]amino}pyrazolo[1,5-a][1,3,5]triazin-2-yl)(methyl)amino]-2-methylpropan-2-ol]",IC50,[1],7.05 nM
same,DC50,[2],0.643 nM
same,IC50,[3],3.01 nM
same,DC50,[4],0.878 nM
same,(IC50 CDK12 high ATP) to (Degradation DC50 CDK12) ratio,[4],758
"Fc1ccc2[nH]c(CNc3nc(N4CCOCC4)nc4c(C5CCC5)cnn34)nc2c1F [Example 264, 8-cyclobutyl-N-[(4,5-difluoro-1H-benzimidazol-2-yl)methyl]-2-(morpholin-4-yl)pyrazolo[1,5-a][1,3,5]triazin-4-amine]",IC50,[1],23 nM
same,DC50,[2],1.8 nM
same,IC50,[3],8.7 nM
same,DC50,[4],3.55 nM
same,(IC50 CDK12 high ATP) to (Degradation DC50 CDK12) ratio,[4],627
"Fc1cc2nc(CNc3nc(N4CCOCC4)nc4c(C5CC5)cnn34)[nH]c2cc1F [Example 318, 8-cyclopropyl-N-[(5,6-difluoro-1H-benzimidazol-2-yl)methyl]-2-(morpholin-4-yl)pyrazolo[1,5-a][1,3,5]triazin-4-amine]",IC50,[1],4.22 nM
same,DC50,[2],0.516 nM
same,IC50,[3],2.8 nM
same,DC50,[4],3.51 nM
same,(IC50 CDK12 high ATP) to (Degradation DC50 CDK12) ratio,[4],387
"CN1CCN(c2nc(NCc3nc4c(F)cccc4[nH]3)n3ncc(C(F)(F)F)c3n2)CC1 [Example 293, N-[(4-fluoro-1H-benzimidazol-2-yl)methyl]-2-(4-methylpiperazin-1-yl)-8-(trifluoromethyl)pyrazolo[1,5-a][1,3,5]triazin-4-amine]",IC50,[1],36.1 nM
same,DC50,[2],0.385 nM
same,IC50,[3],8.88 nM
same,DC50,[4],1.71 nM
same,(IC50 CDK12 high ATP) to (Degradation DC50 CDK12) ratio,[4],3446
"Brc1cnn2c(NCc3nc4ccccc4[nH]3)nc(N3CCC4(CCN4)CC3)nc12 [Example 291, N-[(1H-benzimidazol-2-yl)methyl]-8-bromo-2-(1,7-diazaspiro[3.5]nonan-7-yl)pyrazolo[1,5-a][1,3,5]triazin-4-amine]",IC50,[1],59.4 nM
same,DC50,[2],10 nM
same,IC50,[3],18.6 nM
same,DC50,[4],19.2 nM
same,(IC50 CDK12 high ATP) to (Degradation DC50 CDK12) ratio,[4],554
"CN(CC(C)(C)O)c1nc(NCc2nc3cc(F)c(Cl)cc3[nH]2)n2ncc(C3CC3)c2n1 [Example 317, 1-[(4-{[(6-chloro-5-fluoro-1H-benzimidazol-2-yl)methyl]amino}-8-cyclopropylpyrazolo[1,5-a][1,3,5]triazin-2-yl)(methyl)amino]-2-methylpropan-2-ol]",IC50,[1],5.21 nM
same,DC50,[2],0.347 nM
same,IC50,[3],3.66 nM
same,DC50,[4],5.47 nM
same,(IC50 CDK12 high ATP) to (Degradation DC50 CDK12) ratio,[4],179
"CN1CCN(c2nc(NCc3nc4cc(F)c(F)cc4[nH]3)n3ncc(C4CC4)c3n2)CC1 [Example 311, 8-cyclopropyl-N-[(5,6-difluoro-1H-benzimidazol-2-yl)methyl]-2-(4-methylpiperazin-1-yl)pyrazolo[1,5-a][1,3,5]triazin-4-amine]",IC50,[1],16.7 nM
same,DC50,[2],0.892 nM
same,IC50,[3],8.13 nM
same,DC50,[4],6.15 nM
same,(IC50 CDK12 high ATP) to (Degradation DC50 CDK12) ratio,[4],>3251
"CC1(N)CCN(c2nc(NCc3nc4ccccc4[nH]3)n3ncc(Br)c3n2)CC1 [Example 290, 2-(4-amino-4-methylpiperidin-1-yl)-N-[(1H-benzimidazol-2-yl)methyl]-8-bromopyrazolo[1,5-a][1,3,5]triazin-4-amine]",IC50,[1],64.9 nM
same,DC50,[2],8.58 nM
same,IC50,[3],20.3 nM
same,DC50,[4],21.5 nM
same,(IC50 CDK12 high ATP) to (Degradation DC50 CDK12) ratio,[4],>920

# From patent publication US20230117034A1, “PYRAZOLOTRIAZINES” (Bayer Aktiengesellschaft, priority 2019, published 2023)
